“And” between values parts separate entries of the source, which are not always exact repeats. Identical values can stand only once. Numbers after ± are expanded uncertainties.
Settings: Gas, Buoyancy - hydrostatic balance with magnetic suspension - two sinkers

[He] [helium]
mass density (223.15 K, 1881.4 kPa): 4.0102 ± 0.0033 kg/m3 and 4.0101 ± 0.0033 kg/m3 | mass density (223.15 K, 1881.5 kPa): 4.0102 ± 0.0033 kg/m3 | mass density (223.15 K, 3970 kPa): 8.3499 ± 0.0037 kg/m3 | mass density (223.15 K, 3970.1 kPa): 8.3501 ± 0.0037 kg/m3 and 8.3499 ± 0.0037 kg/m3 and 8.35 ± 0.0037 kg/m3 | mass density (223.15 K, 3970.2 kPa): 8.3499 ± 0.0037 kg/m3 | mass density (223.15 K, 8133.1 kPa): 16.67 ± 0.011 kg/m3 and 16.6699 ± 0.011 kg/m3 and 16.6701 ± 0.011 kg/m3 | mass density (223.15 K, 8133.2 kPa): 16.6699 ± 0.011 kg/m3 and 16.6701 ± 0.011 kg/m3 | mass density (223.15 K, 11880 kPa): 23.8087 ± 0.013 kg/m3 [middle of 5 runs] | mass density (223.15 K, 15827 kPa): 30.9985 ± 0.016 kg/m3 | mass density (223.15 K, 15828 kPa): 30.9993 ± 0.016 kg/m3 [middle of 4 runs] | mass density (223.15 K, 19642 kPa): 37.6507 ± 0.021 kg/m3 [middle of 4 runs] | mass density (223.15 K, 26024 kPa): 48.1863 ± 0.03 kg/m3 and 48.1868 ± 0.03 kg/m3 | mass density (223.15 K, 26025 kPa): 48.1881 ± 0.03 kg/m3 and 48.1886 ± 0.03 kg/m3 and 48.1887 ± 0.03 kg/m3 | mass density (223.15 K, 32014 kPa): 57.4666 ± 0.042 kg/m3 | mass density (223.15 K, 32015 kPa): 57.4668 ± 0.042 kg/m3 and 57.4679 ± 0.042 kg/m3 | mass density (223.15 K, 32016 kPa): 57.4684 ± 0.042 kg/m3 | mass density (223.15 K, 32017 kPa): 57.4698 ± 0.042 kg/m3 | mass density (223.15 K, 38281 kPa): 66.6119 ± 0.055 kg/m3 | mass density (223.15 K, 38282 kPa): 66.6131 ± 0.055 kg/m3 and 66.6126 ± 0.055 kg/m3 | mass density (223.15 K, 38283 kPa): 66.614 ± 0.055 kg/m3 | mass density (223.15 K, 38284 kPa): 66.616 ± 0.055 kg/m3 | mass density (253.15 K, 1929.2 kPa): 3.629 ± 0.0031 kg/m3 and 3.6292 ± 0.0031 kg/m3 | mass density (253.15 K, 1929.3 kPa): 3.629 ± 0.0031 kg/m3 and 3.6294 ± 0.0031 kg/m3 and 3.6292 ± 0.0031 kg/m3 | mass density (253.15 K, 3784.6 kPa): 7.046 ± 0.0035 kg/m3 and 7.0462 ± 0.0035 kg/m3 and 7.0461 ± 0.0035 kg/m3 | mass density (253.15 K, 7472.2 kPa): 13.634 ± 0.0094 kg/m3 | mass density (253.15 K, 7472.3 kPa): 13.634 ± 0.0094 kg/m3 | mass density (253.15 K, 11895 kPa): 21.202 ± 0.011 kg/m3 and 21.2018 ± 0.011 kg/m3 | mass density (253.15 K, 11896 kPa): 21.2023 ± 0.011 kg/m3 and 21.2022 ± 0.011 kg/m3 and 21.2019 ± 0.011 kg/m3 | mass density (253.15 K, 15957 kPa): 27.8548 ± 0.014 kg/m3 | mass density (253.15 K, 15958 kPa): 27.8555 ± 0.014 kg/m3 [middle of 4 runs] | mass density (253.15 K, 19865 kPa): 34.0064 ± 0.018 kg/m3 and 34.007 ± 0.018 kg/m3 | mass density (253.15 K, 19866 kPa): 34.0081 ± 0.018 kg/m3 and 34.0112 ± 0.018 kg/m3 | mass density (253.15 K, 25976 kPa): 43.1785 ± 0.026 kg/m3 | mass density (253.15 K, 25977 kPa): 43.179 ± 0.026 kg/m3 and 43.1796 ± 0.026 kg/m3 | mass density (253.15 K, 25978 kPa): 43.181 ± 0.026 kg/m3 and 43.1801 ± 0.026 kg/m3 | mass density (253.15 K, 31938 kPa): 51.6436 ± 0.035 kg/m3 and 51.6443 ± 0.035 kg/m3 | mass density (253.15 K, 31940 kPa): 51.647 ± 0.035 kg/m3 and 51.6462 ± 0.035 kg/m3 and 51.6454 ± 0.035 kg/m3 | mass density (253.15 K, 37813 kPa): 59.5651 ± 0.046 kg/m3 | mass density (253.15 K, 37814 kPa): 59.5664 ± 0.046 kg/m3 | mass density (253.15 K, 37815 kPa): 59.5673 ± 0.046 kg/m3 | mass density (253.15 K, 37816 kPa): 59.5686 ± 0.046 kg/m3 | mass density (253.15 K, 37817 kPa): 59.5703 ± 0.046 kg/m3 | mass density (273.16 K, 935.8 kPa): 1.6415 ± 0.0026 kg/m3 | mass density (273.16 K, 935.9 kPa): 1.6416 ± 0.0026 kg/m3 and 1.6415 ± 0.0026 kg/m3 | mass density (273.16 K, 1881.8 kPa): 3.2839 ± 0.003 kg/m3 | mass density (273.16 K, 1927.3 kPa): 3.363 ± 0.003 kg/m3 and 3.3629 ± 0.003 kg/m3 | mass density (273.16 K, 1927.4 kPa): 3.3629 ± 0.003 kg/m3 and 3.363 ± 0.003 kg/m3 | mass density (273.16 K, 1956.4 kPa): 3.4135 ± 0.003 kg/m3 | mass density (273.16 K, 1956.5 kPa): 3.4135 ± 0.003 kg/m3 and 3.4134 ± 0.003 kg/m3 | mass density (273.16 K, 3626.6 kPa): 6.273 ± 0.0034 kg/m3 and 6.2731 ± 0.0034 kg/m3 | mass density (273.16 K, 3626.7 kPa): 6.2732 ± 0.0034 kg/m3 | mass density (273.16 K, 3626.8 kPa): 6.2735 ± 0.0034 kg/m3 | mass density (273.16 K, 3926.1 kPa): 6.7802 ± 0.0033 kg/m3 | mass density (273.16 K, 3926.2 kPa): 6.7804 ± 0.0033 kg/m3 and 6.7802 ± 0.0033 kg/m3 and 6.7803 ± 0.0033 kg/m3 | mass density (273.16 K, 3952.8 kPa): 6.8257 ± 0.0034 kg/m3 | mass density (273.16 K, 3952.9 kPa): 6.8257 ± 0.0034 kg/m3 | mass density (273.16 K, 3975.1 kPa): 6.8634 ± 0.0033 kg/m3 | mass density (273.16 K, 3975.2 kPa): 6.8633 ± 0.0033 kg/m3 and 6.8635 ± 0.0033 kg/m3 | mass density (273.16 K, 7764.9 kPa): 13.1534 ± 0.0081 kg/m3 | mass density (273.16 K, 7765.3 kPa): 13.1538 ± 0.0081 kg/m3 | mass density (273.16 K, 7765.7 kPa): 13.1545 ± 0.0081 kg/m3 | mass density (273.16 K, 7766.1 kPa): 13.1555 ± 0.0081 kg/m3 | mass density (273.16 K, 7766.6 kPa): 13.1563 ± 0.0081 kg/m3 | mass density (273.16 K, 7916 kPa): 13.399 ± 0.0084 kg/m3 | mass density (273.16 K, 7916.1 kPa): 13.3992 ± 0.0084 kg/m3 and 13.399 ± 0.0084 kg/m3 and 13.3991 ± 0.0084 kg/m3 | mass density (273.16 K, 7973.3 kPa): 13.4919 ± 0.0083 kg/m3 | mass density (273.16 K, 7973.4 kPa): 13.4923 ± 0.0083 kg/m3 and 13.4922 ± 0.0083 kg/m3 and 13.4921 ± 0.0083 kg/m3 | mass density (273.16 K, 8006.1 kPa): 13.5452 ± 0.0083 kg/m3 | mass density (273.16 K, 8006.2 kPa): 13.5452 ± 0.0083 kg/m3 | mass density (273.16 K, 11783 kPa): 19.5712 ± 0.012 kg/m3 [middle of 5 runs] | mass density (273.16 K, 11830 kPa): 19.6435 ± 0.017 kg/m3 [middle of 5 runs] | mass density (273.16 K, 11855 kPa): 19.6832 ± 0.0097 kg/m3 [middle of 5 runs] | mass density (273.16 K, 12056 kPa): 19.9988 ± 0.0092 kg/m3 [middle of 5 runs] | mass density (273.16 K, 15586 kPa): 25.4233 ± 0.013 kg/m3 and 25.4234 ± 0.013 kg/m3 | mass density (273.16 K, 15587 kPa): 25.4235 ± 0.013 kg/m3 and 25.4232 ± 0.013 kg/m3 | mass density (273.16 K, 15980 kPa): 26.017 ± 0.011 kg/m3 [middle of 5 runs] | mass density (273.16 K, 16077 kPa): 26.1628 ± 0.011 kg/m3 and 26.1631 ± 0.011 kg/m3 | mass density (273.16 K, 16078 kPa): 26.164 ± 0.011 kg/m3 and 26.1636 ± 0.011 kg/m3 and 26.1633 ± 0.011 kg/m3 | mass density (273.16 K, 16090 kPa): 26.1822 ± 0.011 kg/m3 [middle of 5 runs] | mass density (273.16 K, 19645 kPa): 31.445 ± 0.018 kg/m3 [middle of 4 runs] | mass density (273.16 K, 19708 kPa): 31.5381 ± 0.018 kg/m3 and 31.5379 ± 0.018 kg/m3 | mass density (273.16 K, 19709 kPa): 31.5382 ± 0.018 kg/m3 and 31.5385 ± 0.018 kg/m3 and 31.5386 ± 0.018 kg/m3 | mass density (273.16 K, 19869 kPa): 31.7712 ± 0.016 kg/m3 and 31.7709 ± 0.016 kg/m3 | mass density (273.16 K, 19870 kPa): 31.7727 ± 0.016 kg/m3 and 31.7718 ± 0.016 kg/m3 and 31.7722 ± 0.016 kg/m3 | mass density (273.16 K, 20242 kPa): 32.3124 ± 0.016 kg/m3 [middle of 4 runs] | mass density (273.16 K, 20243 kPa): 32.314 ± 0.016 kg/m3 | mass density (273.16 K, 25434 kPa): 39.6666 ± 0.023 kg/m3 and 39.6662 ± 0.023 kg/m3 and 39.6672 ± 0.023 kg/m3 | mass density (273.16 K, 25435 kPa): 39.6682 ± 0.023 kg/m3 and 39.6678 ± 0.023 kg/m3 | mass density (273.16 K, 25464 kPa): 39.7083 ± 0.023 kg/m3 | mass density (273.16 K, 25465 kPa): 39.7092 ± 0.023 kg/m3 | mass density (273.16 K, 25466 kPa): 39.7107 ± 0.023 kg/m3 and 39.7113 ± 0.023 kg/m3 and 39.7099 ± 0.023 kg/m3 | mass density (273.16 K, 25915 kPa): 40.3302 ± 0.022 kg/m3 and 40.3307 ± 0.022 kg/m3 and 40.3313 ± 0.022 kg/m3 | mass density (273.16 K, 25916 kPa): 40.3324 ± 0.022 kg/m3 and 40.3317 ± 0.022 kg/m3 | mass density (273.16 K, 25964 kPa): 40.3998 ± 0.022 kg/m3 | mass density (273.16 K, 25965 kPa): 40.4011 ± 0.022 kg/m3 and 40.4013 ± 0.022 kg/m3 | mass density (273.16 K, 25966 kPa): 40.402 ± 0.022 kg/m3 | mass density (273.16 K, 31576 kPa): 47.9567 ± 0.033 kg/m3

From the NIST ThermoML archive (doi:10.1016/j.jct.2006.09.012)
